The results in this text go back to patent publication US9353072B2, “Antimicrobial substituted thiazoles and methods of use” (Purdue Research Foundation, priority 2012, dated 2016).

Converted amounts (≈) assume the structure as drawn.

The subject of one data set is NRS108. As to the kind of experiment: MIC broth microdilution, NRS108. The format is cell-based. The note with it: Staphylococcus aureus, Table 2, read-out: Minimum Inhibitory Concentration. The protocol:
(§1) Determination of minimum inhibitory concentration (MIC). The MICs of the lead thiazole compound (compound 1a) and nine derivatives tested against all 18 MRSA strains were determined, in triplicate samples, using the broth microdilution method in accordance with the recommendations contained in the CLSI guidelines.

For the next data set, the system named is MRSA USA700. As to the kind of experiment: MIC broth microdilution, MRSA USA700. In kind it is cell-based. The note with it: Staphylococcus aureus, Table 2, read-out: Minimum Inhibitory Concentration. As to the method: as §1
For orientation: Dilution methods test growth across graded concentrations, often in twofold steps.

In the next data set the test system is MRSA USA500 (NRS385). As to the kind of experiment: MIC/MBC broth microdilution, NRS385 (USA500). The format is cell-based. To be noted: Staphylococcus aureus; Table 2; MRSA USA500; read-out: Minimum Inhibitory Concentration. In outline:
(§2)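 MIC: CLSI broth microdilution; triplicate samples per strain.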

A further data set has as its system NRS119. As to the kind of experiment: MIC/MBC broth microdilution, NRS119. To be noted: Staphylococcus aureus; Table 2; NRS119; read-out: Minimum Inhibitory Concentration. In kind it is cell-based. The essentials:
as §2

The subject of data set [1] is MRSA ATCC 43300. As to the kind of experiment: MIC/MBC broth microdilution, MRSA ATCC 43300. The format is cell-based, Staphylococcus aureus. To be noted: Staphylococcus aureus; Table 2; MRSA ATCC 43300; read-out: Minimum Inhibitory Concentration. In outline: as §2
A further data set has as its system NRS107. As to the kind of experiment: MIC/MBC broth microdilution, NRS107. In kind it is cell-based. To be noted: Staphylococcus aureus, Table 2, read-out: Minimum Inhibitory Concentration. The essentials:
as §2

A further data set has as its system MRSA USA800. As to the kind of experiment: MIC broth microdilution, MRSA USA800. In kind it is cell-based. The note with it: Staphylococcus aureus, Table 2, read-out: Minimum Inhibitory Concentration. The protocol:
as §1

Data set [2] has as its system MRSA ATCC 700699 (NRS1, VISA). As to the kind of experiment: MIC/MBC broth microdilution, NRS1 (ATCC 700699). In kind it is cell-based. To be noted: Staphylococcus aureus; Table 2; MRSA ATCC 700699; read-out: Minimum Inhibitory Concentration. The essentials: as §2
A further data set deals with MRSA (USA300). As to the kind of experiment: Time-kill assay. The format is cell-based, Staphylococcus aureus. To be noted: 3.0×MIC. As to the method:
Time-kill assay. […] Viable CFU/mL was determined by serial dilution and plating on trypticase soy agar (TSA) (Becton, Dickinson and Company, Sparks, Md., USA) plates after 0, 2, 4, 6, 8, 10, and 12 hours of incubation at 37° C. to identify the time required to reduce the bacterial cell count by 3-log10.

In another data set the test system is VISA LIM 3 (NRS37). As to the kind of experiment: MIC/MBC broth microdilution, NRS37 (VISA LIM 3). In kind it is cell-based. To be noted: Staphylococcus aureus; Table 2; VISA LIM 3; read-out: Minimum Inhibitory Concentration. The essentials: as §2
A further data set has as its system NRS194. As to the kind of experiment: MIC/MBC broth microdilution, NRS194. The format is cell-based. To be noted: Staphylococcus aureus, Table 2, read-out: Minimum Inhibitory Concentration. The essentials: as §2
The subject of a further data set is VRSA (VRS10). As to the kind of experiment: MIC/MBC broth microdilution, VRSA (VRS10). In kind it is cell-based, Staphylococcus aureus. To be noted: VRSA; for MIC: Staphylococcus aureus, Table 2, read-out: Minimum Inhibitory Concentration. The protocol: as §1
In data set [3] the test system is murine macrophage cells (J774.A1). As to the kind of experiment: In vitro cytotoxicity analysis, MTS assay. The format is cell-based. To be noted: 16 μM, 24 hours. As to the method: In vitro cytotoxicity analysis: Compounds were assayed at concentrations of 2 μM, 4 μM, 8 μM, and 16 μM against a macrophage cell line (J774.A1) to determine the potential toxic effect in vitro. Murine macrophage cells were cultured in Dulbeco's Modified Eagle Medium (Sigma-Aldrich, St. Louis, Mo., USA) with 10% Fetal Bovine Serum (USA Scientific, Inc.) at 37° C. with 5% CO2. Controls received DMSO alone at a concentration equal to that in drug-treated cell samples. The cells were incubated with the compounds in a 96-Well Plate at 37° C. and 5.0% CO2 for 24 hours prior to addition of the assay reagent MTS 3-(4,5-dimethylthiazol-2-yl)-5-(3-carboxymethoxyphenyl)-2-(4-sulfophenyl)-2H-tetrazolium) (Promega, Madison, Wis., USA). The reagent measures the succinate dehydrogenase mitochondrial activity as an indicator of cell viability and proliferation. Corrected absorbance readings (actual absorbance readings for each treatment subtracted from background absorbance) were taken using a kinetic ELISA microplate reader (Molecular Devices, Sunnyvale, Calif., USA). The quantity of viable cells after treatment with each compound was expressed as a percentage of the control, DMSO.
(Formazan colour is commonly taken as a measure of viable cells.)

In the next data set the test system is MRSA NRS384 (USA300). As to the kind of experiment: MIC/MBC broth microdilution, NRS384 (USA300). To be noted: Staphylococcus aureus; Table 2; MRSA USA300; read-out: Minimum Inhibitory Concentration. The format is cell-based. In outline: as §2
A further data set deals with MRSA USA100. Description: MIC broth microdilution, MRSA USA100. The format is cell-based. The note with it: Staphylococcus aureus; Table 2; MRSA USA100; read-out: Minimum Inhibitory Concentration. The protocol: as §1
Another data set concerns MRSA USA200. Description: MIC broth microdilution, MRSA USA200. The format is cell-based. The note with it: Staphylococcus aureus; Table 2; MRSA USA200; read-out: Minimum Inhibitory Concentration. As to the method: as §1
The next data set deals with VISA HIP07256 (NRS19). Description: MIC/MBC broth microdilution, NRS19 (VISA HIP07256). In kind it is cell-based. The note with it: Staphylococcus aureus; Table 2; VISA HIP07256; read-out: Minimum Inhibitory Concentration. In outline:
as §2

The subject of data set [4] is 18 different strains of MRSA and VRSA. As to the kind of experiment: MIC broth microdilution, panel of 18 MRSA and VRSA strains (summary statements). To be noted: relative to lead compound 1a; number of strains as stated in the sentence. The format is cell-based, Staphylococcus aureus. As to the method: as §1
A further data set deals with MRSA USA400 (NRS123). Description: MIC/MBC broth microdilution, NRS123 (USA400). The format is cell-based. To be noted: Staphylococcus aureus; Table 2; MRSA USA400; read-out: Minimum Inhibitory Concentration. The essentials:
as §2

The subject of data set [5] is MRSA ATCC 43300. As to the kind of experiment: Flow cytometry with LIVE/DEAD Fixable Dead Cell Stain. The format is cell-based, Staphylococcus aureus. The note with it: compound 1a at 4.0×MIC; lysostaphin positive control; 10 minutes at 37° C. The protocol: Flow cytometry and LIVE/DEAD® Fixable Dead Cell Stain: The action of the lead compound on cell membrane permeability of MRSA was assayed using the LIVE/DEAD® Fixable Dead Cell Stain Kit (Invitrogen, Eugene, Oreg., USA) according to the manufacturer's instructions. […] Post-treatment cells were fixed with 3.7% formaldehyde; the cells were then screened with a Beckman Coulter FC500 flow cytometer.
A general note: In flow cytometry, cells or beads pass a laser one at a time.

Take `CCCCCc1ccc(-c2nc(C)c(/C(C)=N/NC(=N)N)s2)cc1` [Compound 1d]: the MIC in the data set on NRS108 stood at 1.1 µg/mL (≈ 3.2 µM); in the data set on MRSA USA700 it was 1.1 µg/mL (≈ 3.2 µM); with MRSA USA500 (NRS385), 1.1 µg/mL (≈ 3.2 µM); in the data set on NRS119, 1.1 µg/mL (≈ 3.2 µM); in the data set on MRSA ATCC 43300 [1] it was 0.8 µg/mL (≈ 2.33 µM); with NRS107, 0.5 µg/mL (≈ 1.46 µM). The MIC with MRSA USA800 came out at 0.5 µg/mL (≈ 1.46 µM); in data set [2], 0.5 µg/mL (≈ 1.46 µM); in the data set with VISA LIM 3 (NRS37), 0.5 µg/mL (≈ 1.46 µM); in the data set with NRS194, 1.1 µg/mL (≈ 3.2 µM). Further, the “bactericidal effect in time-kill assay” value in the data set on MRSA (USA300) (12 hour incubation at 37° C.) was “bactericidal”. Also, the “time to eliminate MRSA completely (reduce CFU to zero)” value in the data set with MRSA (USA300) (MRSA (USA300)) is reported as “within two hours”.
For `C/C(=N\NC(=N)N)c1sc(-c2ccc(C(C)(C)C)cc2)nc1C` [Compound 1g, 2-{1-[2-(4-(tert-Butyl)phenyl)-4-methylthiazol-5-yl]ethylidene}hydrazinecarboximid-amide], the MIC with VRSA (VRS10), in the data set on MRSA USA500 (NRS385), with MRSA NRS384 (USA300), with NRS107, in the data set on MRSA USA800 and in the data set on MRSA USA100 was 1 µg/mL (≈ 3.04 µM) each time. Besides, the MIC (in the data set with MRSA USA200; in data set [2]; in the data set with VISA HIP07256 (NRS19); in the data set with NRS194) was 1.9 µg/mL (≈ 5.77 µM) in each case. Besides, the “toxicity toward murine macrophage cells” value in data set [3] is “exhibited toxicity”. In addition, the “improvement in the MIC value relative to the lead compound” value in data set [4] was “nearly two- to five-fold enhancement”.
With `C/C(=N\NC(=N)N)c1sc(-c2ccc3ccccc3c2)nc1C` [Compound 1h, 2-{1-[4-Methyl-2-(naphthalen-2-yl)thiazol-5-yl]ethylidene}hydrazinecarboximid-amide], the MIC in the data set on VRSA (VRS10) came out at 0.5 µg/mL (≈ 1.55 µM); in the data set with NRS108, 1.9 µg/mL (≈ 5.87 µM); with MRSA USA700, 1.9 µg/mL (≈ 5.87 µM); in the data set with MRSA USA500 (NRS385), 1.9 µg/mL (≈ 5.87 µM); in the data set with NRS107, 1.9 µg/mL (≈ 5.87 µM); with MRSA USA200, 1.9 µg/mL (≈ 5.87 µM). For the same compound, the MIC was 3.8 µg/mL (≈ 11.7 µM) in data set [2], 1.9 µg/mL (≈ 5.87 µM) in the data set with VISA HIP07256 (NRS19) and 1.9 µg/mL (≈ 5.87 µM) in the data set with NRS194. Moreover, the “reduction in MIC compared to 1a against VRSA” value in the data set on VRSA (VRS10) is on record as “near three-fold reduction”. Also, the “toxicity toward murine macrophage cells” value in data set [3] is “exhibited toxicity”.
For the compound `C/C(=N\NC(=N)N)c1sc(-c2ccc(C3=CCCCC3)cc2)nc1C` [Compound 7, 2-{1-[2-(4-(1-Cyclohexenyl)phenyl)-4-methylthiazol-5-yl]ethylidene}hydrazine-carboximidamide], the MIC came out at 1.3 µg/mL (≈ 3.68 µM) in the data set with VRSA (VRS10); 2.3 µg/mL (≈ 6.51 µM) in the data set on NRS108; 1.2 µg/mL (≈ 3.39 µM) in the data set on MRSA USA500 (NRS385); 0.6 µg/mL (≈ 1.7 µM) in the data set on MRSA USA400 (NRS123); 0.6 µg/mL (≈ 1.7 µM) with NRS119; 1.2 µg/mL (≈ 3.39 µM) in the data set on MRSA NRS384 (USA300). The MIC amounted to 0.6 µg/mL (≈ 1.7 µM) with NRS107; 0.6 µg/mL (≈ 1.7 µM) in the data set on MRSA USA800; 1.2 µg/mL (≈ 3.39 µM) with MRSA USA100; 1.2 µg/mL (≈ 3.39 µM) in the data set on MRSA USA200; 0.6 µg/mL (≈ 1.7 µM) in data set [2]; 0.6 µg/mL (≈ 1.7 µM) in the data set on VISA HIP07256 (NRS19). The MIC in the data set on VISA LIM 3 (NRS37) and in the data set on NRS194 was 0.6 µg/mL (≈ 1.7 µM) each time. The “toxicity toward murine macrophage cells” value in data set [3] was “none were observed to be toxic”. In addition, the “improvement in the MIC value relative to the lead compound” value in data set [4] is given as “two- to four-fold improvement”.
As to “lysostaphin: positive control; disrupts the cross-linking of the pentaglycin bridges in the cell wall of staphylococci [reference compound]”, in the data set with MRSA ATCC 43300 [5], the “cells stained with the dye” value stood at 45%.
